Tested on: yeast genes (level of expressed mRNA)
Assay: DNA chip analysis of expressed mRNA of yeast genes after 2 h culture with a toxic chemical substance
Format: cell-based, Saccharomyces cerevisiae S288C
Description: Yeast (Saccharomyces cerevtisiae S288C (α SUC2mal mel gap2 CUP1)) were cultured at 25° C. on YPD medium (yeast extract 1%, polypepton 2%, glucose 2%). One of toxic chemical substances was added to the cell at logarithmic growth phase, and the cell was further cultured for two hours. Cell was cultured without any chemical substance in the same condition, and was used as control. Concentrations of the chemical substances were defined to inhibit the growth of the yeast but not lead to death.
After the completion of cultivation, the culture was centrifuged to collect the cells. To the cells, sodium acetate buffer (50 mM sodium acetate, 10 mM EDTA, 1% SDS) was added, and the mixture was shaken at 65° C. for five minutes, followed by returning to room temperature, and obtaining the supernatant, which procedure was repeated two times. To the supernatant, ½ amount of a solution of phenol/chloroform was added, and the mixture was centrifuged to give a supernatant, which was added with an equal amount of chloroform, and the mixture was centrifuged to give a supernatant. To the supernatant, an equal amount of isopropanol containing 0.3 M sodium acetate was added, and the mixture was allowed to stand at room temperature for 30 minutes, after which the mixture was centrifuged to give a sediment of the whole RNAs. Seventy % ethanol was added to the sediment, and the mixture was again centrifuged to give a sediment, which was then dried and dissolved in water. mRNA was isolated from the whole RNAs as followings. In view of the fact that a poly A chain is attached to the 3′ terminus of mRNA, a polynucleotide having a poly T structure which was immobilized on the surface of latex beads was used to trap the mRNA, and then the mRNA was washed and eluted with spine column (Oligotex-dT30<Super>mRNA Purification Kit, Takara). Reverse transcription of the mRNA was conducted with a reverse transcriptase (Super Script II Reverse Transcriptase; catalogue No. 18064-014, GibcoBRL) using fluorescence-labeled nucleotides to give cDNAs that were introduced with Cy3-dUTP or Cy5-dUTP during the reverse transcription.
The labeled cDNAs were dissolved in TE buffer (10 mM Tris-HCl/1 mM EDTA, pH8.0), and the solution was dropped on the DNA chip containing the whole genes of yeast (DNA Chip Research Inc. Japan) so that the cDNAs were hybridized on the DNA chip at 65° C. for over 12 hours. The fluoresces intensity of the DNA chip was read with a scanner, and the ratio relative to the fluorescence intensity resulting from the absence of chemical substance was estimated as the following, which is shown in Tables 1 to 9: [formula]
In the Tables, “Intensity” indicated in the rightmost column is a value of the level of expressed mRNA of each gene in control cells as divided by the average level of the expressions of the whole genes.

Compound: O=[N+]([O-])c1cc[n+]([O-])c2ccccc12 [(5), 4-nitroquinolin-N-oxide]
- The level of expressed mRNA in the presence of chemical substance/The level of expressed mRNA in the absence of chemical substance (yeast gene YAR010C): 1.0
- The level of expressed mRNA in the presence of chemical substance/The level of expressed mRNA in the absence of chemical substance (yeast gene YBL005W-A): 1.3
- The level of expressed mRNA in the presence of chemical substance/The level of expressed mRNA in the absence of chemical substance (yeast gene YBL041W): 1.6
- The level of expressed mRNA in the presence of chemical substance/The level of expressed mRNA in the absence of chemical substance (yeast gene YBL043W): 1.1
- The level of expressed mRNA in the presence of chemical substance/The level of expressed mRNA in the absence of chemical substance (yeast gene YBL078C): 0.7
- The level of expressed mRNA in the presence of chemical substance/The level of expressed mRNA in the absence of chemical substance (yeast gene YBR214W): 1.1
- The level of expressed mRNA in the presence of chemical substance/The level of expressed mRNA in the absence of chemical substance (yeast gene YCL020W): 0.5
- The level of expressed mRNA in the presence of chemical substance/The level of expressed mRNA in the absence of chemical substance (yeast gene YCL027W): 1.2
- The level of expressed mRNA in the presence of chemical substance/The level of expressed mRNA in the absence of chemical substance (yeast gene YCR004C): 1.2
- The level of expressed mRNA in the presence of chemical substance/The level of expressed mRNA in the absence of chemical substance (yeast gene YCR071C): 1.2
- The level of expressed mRNA in the presence of chemical substance/The level of expressed mRNA in the absence of chemical substance (yeast gene YCR088W): 1.1
- The level of expressed mRNA in the presence of chemical substance/The level of expressed mRNA in the absence of chemical substance (yeast gene YDL008W): 1.8
- The level of expressed mRNA in the presence of chemical substance/The level of expressed mRNA in the absence of chemical substance (yeast gene YDL238C): 0.9
- The level of expressed mRNA in the presence of chemical substance/The level of expressed mRNA in the absence of chemical substance (yeast gene YDR055W): 1.7
- The level of expressed mRNA in the presence of chemical substance/The level of expressed mRNA in the absence of chemical substance (yeast gene YDR084C): 1.2
- The level of expressed mRNA in the presence of chemical substance/The level of expressed mRNA in the absence of chemical substance (yeast gene YDR085C): 0.9
- The level of expressed mRNA in the presence of chemical substance/The level of expressed mRNA in the absence of chemical substance (yeast gene YDR104C): 1.3
- The level of expressed mRNA in the presence of chemical substance/The level of expressed mRNA in the absence of chemical substance (yeast gene YDR115W): 1.4
- The level of expressed mRNA in the presence of chemical substance/The level of expressed mRNA in the absence of chemical substance (yeast gene YDR259C): 1.0
- The level of expressed mRNA in the presence of chemical substance/The level of expressed mRNA in the absence of chemical substance (yeast gene YDR315C): 0.9
- The level of expressed mRNA in the presence of chemical substance/The level of expressed mRNA in the absence of chemical substance (yeast gene YDR358W): 1.4
- The level of expressed mRNA in the presence of chemical substance/The level of expressed mRNA in the absence of chemical substance (yeast gene YDR388W): 0.7
- The level of expressed mRNA in the presence of chemical substance/The level of expressed mRNA in the absence of chemical substance (yeast gene YDR432W): 1.6
- The level of expressed mRNA in the presence of chemical substance/The level of expressed mRNA in the absence of chemical substance (yeast gene YDR481C): 1.0
- The level of expressed mRNA in the presence of chemical substance/The level of expressed mRNA in the absence of chemical substance (yeast gene YDR510W): 0.7
- The level of expressed mRNA in the presence of chemical substance/The level of expressed mRNA in the absence of chemical substance (yeast gene YEL042W): 0.7
- The level of expressed mRNA in the presence of chemical substance/The level of expressed mRNA in the absence of chemical substance (yeast gene YEL066W): 0.8
- The level of expressed mRNA in the presence of chemical substance/The level of expressed mRNA in the absence of chemical substance (yeast gene YER039C): 1.5
- The level of expressed mRNA in the presence of chemical substance/The level of expressed mRNA in the absence of chemical substance (yeast gene YER107C): 1.3
- The level of expressed mRNA in the presence of chemical substance/The level of expressed mRNA in the absence of chemical substance (yeast gene YER130C): 1.7
- The level of expressed mRNA in the presence of chemical substance/The level of expressed mRNA in the absence of chemical substance (yeast gene YFL028C): 1.7
- The level of expressed mRNA in the presence of chemical substance/The level of expressed mRNA in the absence of chemical substance (yeast gene YFL043C): 1.2
- The level of expressed mRNA in the presence of chemical substance/The level of expressed mRNA in the absence of chemical substance (yeast gene YGL158W): 1.0
- The level of expressed mRNA in the presence of chemical substance/The level of expressed mRNA in the absence of chemical substance (yeast gene YGL229C): 1.0
- The level of expressed mRNA in the presence of chemical substance/The level of expressed mRNA in the absence of chemical substance (yeast gene YGR136W): 1.2
- The level of expressed mRNA in the presence of chemical substance/The level of expressed mRNA in the absence of chemical substance (yeast gene YGR189C): 0.7
- The level of expressed mRNA in the presence of chemical substance/The level of expressed mRNA in the absence of chemical substance (yeast gene YGR213C): 1.2
- The level of expressed mRNA in the presence of chemical substance/The level of expressed mRNA in the absence of chemical substance (yeast gene YGR257C): 1.3
- The level of expressed mRNA in the presence of chemical substance/The level of expressed mRNA in the absence of chemical substance (yeast gene YHR004C): 1.5
- The level of expressed mRNA in the presence of chemical substance/The level of expressed mRNA in the absence of chemical substance (yeast gene YHR071W): 1.5
- The level of expressed mRNA in the presence of chemical substance/The level of expressed mRNA in the absence of chemical substance (yeast gene YHR139C): 1.3
- The level of expressed mRNA in the presence of chemical substance/The level of expressed mRNA in the absence of chemical substance (yeast gene YHR142W): 1.3
- The level of expressed mRNA in the presence of chemical substance/The level of expressed mRNA in the absence of chemical substance (yeast gene YIL123W): 0.6
- The level of expressed mRNA in the presence of chemical substance/The level of expressed mRNA in the absence of chemical substance (yeast gene YIL140W): 0.8
- The level of expressed mRNA in the presence of chemical substance/The level of expressed mRNA in the absence of chemical substance (yeast gene YJL073W): 1.2
- The level of expressed mRNA in the presence of chemical substance/The level of expressed mRNA in the absence of chemical substance (yeast gene YJL089W): 1.1
- The level of expressed mRNA in the presence of chemical substance/The level of expressed mRNA in the absence of chemical substance (yeast gene YJL116C): 1.3
- The level of expressed mRNA in the presence of chemical substance/The level of expressed mRNA in the absence of chemical substance (yeast gene YJR004C): 1.1
- The level of expressed mRNA in the presence of chemical substance/The level of expressed mRNA in the absence of chemical substance (yeast gene YJR086W): 1.3
- The level of expressed mRNA in the presence of chemical substance/The level of expressed mRNA in the absence of chemical substance (yeast gene YKL008C): 0.9

Source: patent publication US20050112573A1, “Method of detecting toxic substance” (priority 2001, published 2005)
